Results from paper PMC4500090 (Biochemical and biophysical research communications, 2015).
Where two headings read alike, the source gives them in different places.

Assays:
[1] = system: 10 other kinases; settings: read-out: IC50 10 other kinases; cited from earlier work
[2] = system: Aurora A; settings: read-out: IC50 Aurora A; cited from earlier work
[3] = target: T1, MEKK2 (Homo sapiens, UniProt Q9Y2U5); assay: MEKK2 intrinsic ATPase activity assay; format: biochemical
T1 sequence (Q9Y2U5 1-619): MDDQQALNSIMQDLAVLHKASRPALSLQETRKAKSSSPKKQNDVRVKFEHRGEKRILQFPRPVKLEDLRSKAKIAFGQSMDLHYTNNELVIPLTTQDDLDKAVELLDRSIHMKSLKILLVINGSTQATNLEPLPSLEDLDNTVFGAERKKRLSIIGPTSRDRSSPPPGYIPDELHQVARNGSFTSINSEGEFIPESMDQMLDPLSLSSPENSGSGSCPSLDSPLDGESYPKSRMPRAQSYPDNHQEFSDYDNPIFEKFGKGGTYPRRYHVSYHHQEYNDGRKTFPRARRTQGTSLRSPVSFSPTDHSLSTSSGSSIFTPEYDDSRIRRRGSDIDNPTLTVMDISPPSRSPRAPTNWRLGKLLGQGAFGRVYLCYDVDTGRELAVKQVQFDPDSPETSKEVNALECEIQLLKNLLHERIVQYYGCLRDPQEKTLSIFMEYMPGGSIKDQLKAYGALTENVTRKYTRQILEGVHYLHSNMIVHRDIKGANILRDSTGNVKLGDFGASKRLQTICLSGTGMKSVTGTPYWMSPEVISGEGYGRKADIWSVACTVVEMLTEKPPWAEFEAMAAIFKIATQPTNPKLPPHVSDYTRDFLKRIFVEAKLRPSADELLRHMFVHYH

[4] = target: T1, MEKK2; assay: MEKK2 transphosphorylation slot blot assay using MKK6 as a substrate; format: biochemical
[5] = system: Abl (T315I) mutant; settings: read-out: IC50 Abl (T315I) mutant; cited from earlier work
[6] = system: Aurora B; settings: read-out: IC50 Aurora B; cited from earlier work
[7] = system: JAK3; settings: read-out: IC50 JAK3; cited from earlier work
[8] = system: Aurora B; settings: read-out: IC50 Aurora B; cited from earlier work; remark: listed apart in the source
[9] = system: CDK2; settings: read-out: IC50 CDK2; cited from earlier work
[10] = system: CDK3; settings: read-out: IC50 CDK3; cited from earlier work
[11] = system: CDK1; settings: read-out: IC50 CDK1; cited from earlier work

IC50 [3] [µM]	IC50 [4] [µM]	Compound	IC50 [1] [µM]	IC50 [2] [µM]	IC50 [5] [µM]	IC50 [6] [µM]	IC50 [7] [µM]	IC50 [8] [µM]	IC50 [9] [µM]	IC50 [10] [µM]	IC50 [11] [µM]
[…]	0.0047 ± 0.0009	O=C(Nc1c[nH]nc1-c1nc2ccc(CN3CCOCC3)cc2[nH]1)NC1CC1 [AT9283]	[…]	[…]	0.004	[…]	[…]	–	–	–	–
0.02 ± 0.007	0.014 ± 0.002	NC(=O)Nc1cc(-c2cccc(F)c2)sc1C(=O)N[C@H]1CCCNC1 [AZD7762]	–	–	–	–	–	–	–	–	–
0.06 ± 0.025	0.034 ± 0.011	CCS(=O)(=O)Nc1ccc2c(c1)/C(=C(/Nc1ccc(CN3CCCCC3)cc1)c1ccccc1)C(=O)N2 [Hesperadin]	–	–	–	–	–	0.25	–	–	–
0.024 ± 0.008	0.017 ± 0.002	Nc1nc(Nc2ccc(S(N)(=O)=O)cc2)nn1C(=O)c1c(F)cccc1F [JNJ-7706621]	–	–	–	–	–	–	[…]	[…]	[…]
